Test results as given in patent US20100151104A1, “Preservative System For Beverages Based On Combinations Of Trans-Cinnamic Acid, Lauric Arginate, And Dimethyl Dicarbonate” (priority 2008, published 2010).

How the values were obtained:
Type in all cases: cell-based
Zygosaccharomyces bailii = test: Growth in 10% apple juice beverage with combinations of LAE & cinnamic acid; log (QA/Qa+QB/Qb) calculation; conditions: for amount of growth (normalized) to control: LAE 0 ppm
Description: (§1) Trans-cinnamic acid and lauric arginate were combined in the following beverage formulation: [table] […] The analysis of the interaction between lauric arginate and cinnamic acid can be refined through use of a mathematical method developed by Voorspuij and Nass (Arch. Int. pharmacodyn. 59:211 1957) (generally accepted among those practiced in the art.) Herein, the interactions between two active substances can be explored. First the quantity (Qa=Molar Cone) of compound A required for an end point (concentration required to stabilize product for 16 weeks) is established. Similarly, the quantity (Qb =Molar cone) of substance B required to establish the same endpoint is established. Thereafter, mixtures of A & B, in quantities QA & Qs are established that also define endpoints. […] If the sum of the ratios for a mixture of A & Bare=1, then the interaction is considered additive. […] Calculation of log (QA/Qa+QB/Qb) for LAE+trans Cinnamic Acid vs Zygosaccharomyces bailii

Brettanomyces nardensis = test: as above; conditions: for amount of growth (normalized) to control: LAE 0 ppm
Description: as §1, with “Brettanomyces […]” for “Zygosaccharomyces bailii”

Saccharomyces cerevsiae = test: as above; conditions: for amount of growth (normalized) to control: LAE 0 ppm
Description: as §1, with “[table] • Values reflect amount of growth (normalized) to control (0 ppm LAE & 0 ppm Cinnamic acid) for each pH tested.” for “[table]”, “Saccharomyces […]” for “Zygosaccharomyces bailii”

[1] = test system: seven bio-indicator strains (Zygosaccharomyce baili, Brettanomyces species, Saccharomyces cerevisiae, Paecilomyces lilacinus, Zygosaccharomyces bisporus …); test: Example 2: growth/no growth of seven bio-indicator strains in 4% apple juice beverage, 16 weeks; conditions: FIGS. 1a, 1b; stand alone; pH 3.4; 16 weeks at 25° C.
Description: A single preparation of base beverage was employed to prepare each of five tests and consisted of 4% apple juice, 68 g sucrose/L, 52 g glucose/L, 2 g fructose/L prepared in batch water that was formulated to 90 ppm hardness with calcium chloride and magnesium chloride. […] The total combined quantity of sodium malate and malic acid was near constant, but the ratio of malic acid and malate varied slightly given the presence or absence of lauric arginate or cinnamic acid. Where required, lauric arginate or cinnamic acid was supplemented from separately prepared stock solutions. Each of the five tests employed the same bio-indicator organisms; Growth (+) versus no growth (-) established by visual inspection or spectrophotometrically. […] Y3, Zygosaccharomyce baili, Pepsi isolate 906; C-7UP, Brettanomyces species, Pepsi Isolate; Spore, an ascospore preparation of Saccharomyces cerevisiae 99 a Pepsi Isolate; […], Zygosaccharomyces baili, ATCC 60484; Spores, M7, Paecilomyces lilacinus ATCC 90461; […], Zygosaccharomyces bisporus ATCC 52407; Spores, M4, Talaromvces flavus var. flavus ATCC 10512. Samples were incubated for period of 16 weeks at 25° C. in vessels protective against evaporation.

[2] = stand alone, end point = concentration required to stabilize product for 16 weeks

Q: Which results are given for `O=C(O)/C=C/c1ccccc1` [Cinnamic Acid, trans-cinnamic acid]?
A: QA/Qa + QB/Qb (Zygosaccharomyces bailii; QLAE 0, QCA 300): 1.00; QLAE/QLAE* (Zygosaccharomyces bailii; QLAE 0, QCA 300): 0.00; QNaB/QNAB* (Zygosaccharomyces bailii; QLAE 0, QCA 300): 1.00; log (QA/Qa + QB/Qb) (Zygosaccharomyces bailii; QLAE 0, QCA 300): 0.0000; amount of growth (normalized) to control (Zygosaccharomyces bailii; pH 3.0, Cinnamic Acid 10 ppm): 89%; amount of growth (normalized) to control (Zygosaccharomyces bailii; pH 3.0, Cinnamic Acid 20 ppm): 82%; amount of growth (normalized) to control (Zygosaccharomyces bailii; pH 3.0, Cinnamic Acid 50 ppm): 85%; amount of growth (normalized) to control (Zygosaccharomyces bailii; pH 3.0, Cinnamic Acid 75 ppm): 45%; amount of growth (normalized) to control (Zygosaccharomyces bailii; pH 3.0, Cinnamic Acid 100 ppm): 36%; amount of growth (normalized) to control (Zygosaccharomyces bailii; pH 3.5, Cinnamic Acid 10 ppm): 97%; amount of growth (normalized) to control (Zygosaccharomyces bailii; pH 3.5, Cinnamic Acid 20 ppm): 92%; amount of growth (normalized) to control (Zygosaccharomyces bailii; pH 3.5, Cinnamic Acid 50 ppm): 76%; amount of growth (normalized) to control (Zygosaccharomyces bailii; pH 3.5, Cinnamic Acid 75 ppm): 57%; amount of growth (normalized) to control (Zygosaccharomyces bailii; pH 3.5, Cinnamic Acid 100 ppm): 48%; amount of growth (normalized) to control (Zygosaccharomyces bailii; pH 4.0, Cinnamic Acid 10 ppm): 103%; amount of growth (normalized) to control (Zygosaccharomyces bailii; pH 4.0, Cinnamic Acid 20 ppm): 94%; amount of growth (normalized) to control (Zygosaccharomyces bailii; pH 4.0, Cinnamic Acid 50 ppm): 78%; amount of growth (normalized) to control (Zygosaccharomyces bailii; pH 4.0, Cinnamic Acid 75 ppm): 74%; amount of growth (normalized) to control (Zygosaccharomyces bailii; pH 4.0, Cinnamic Acid 100 ppm): 56%; QCA* (quantity of cinnamic acid alone required for the end point) (Zygosaccharomyces bailii; [2]): QCA* 300; QA/Qa + QB/Qb (Brettanomyces nardensis; QLAE 0, QCA 50): 1.00; QLAE/QLAE* (Brettanomyces nardensis; QLAE 0, QCA 50): 0.00; QNaB/QNAB* (Brettanomyces nardensis; QLAE 0, QCA 50): 1.00; log (QA/Qa + QB/Qb) (Brettanomyces nardensis; QLAE 0, QCA 50): 0.0000; amount of growth (normalized) to control (Brettanomyces nardensis; pH 3.0, Cinnamic Acid 10 ppm): 89%; amount of growth (normalized) to control (Brettanomyces nardensis; pH 3.0, Cinnamic Acid 20 ppm): 67%; amount of growth (normalized) to control (Brettanomyces nardensis; pH 3.0, Cinnamic Acid 50 ppm): 1%; amount of growth (normalized) to control (Brettanomyces nardensis; pH 3.0, Cinnamic Acid 75 ppm): 0%; amount of growth (normalized) to control (Brettanomyces nardensis; pH 3.0, Cinnamic Acid 100 ppm): 0%; amount of growth (normalized) to control (Brettanomyces nardensis; pH 3.5, Cinnamic Acid 10 ppm): 88%; amount of growth (normalized) to control (Brettanomyces nardensis; pH 3.5, Cinnamic Acid 20 ppm): 79%; amount of growth (normalized) to control (Brettanomyces nardensis; pH 3.5, Cinnamic Acid 50 ppm): 2%; amount of growth (normalized) to control (Brettanomyces nardensis; pH 3.5, Cinnamic Acid 75 ppm): 1%; amount of growth (normalized) to control (Brettanomyces nardensis; pH 3.5, Cinnamic Acid 100 ppm): 1%; amount of growth (normalized) to control (Brettanomyces nardensis; pH 4.0, Cinnamic Acid 10 ppm): 118%; amount of growth (normalized) to control (Brettanomyces nardensis; pH 4.0, Cinnamic Acid 20 ppm): 101%; amount of growth (normalized) to control (Brettanomyces nardensis; pH 4.0, Cinnamic Acid 50 ppm): 5%; amount of growth (normalized) to control (Brettanomyces nardensis; pH 4.0, Cinnamic Acid 75 ppm): 2%; amount of growth (normalized) to control (Brettanomyces nardensis; pH 4.0, Cinnamic Acid 100 ppm): 1%; QCA* (quantity of cinnamic acid alone required for the end point) (Brettanomyces nardensis; [2]): QCA* 50; QA/Qa + QB/Qb (Saccharomyces cerevsiae; QLAE 0, QCA 300): 1.00; QLAE/QLAE* (Saccharomyces cerevsiae; QLAE 0, QCA 300): 0.00; QNaB/QNAB* (Saccharomyces cerevsiae; QLAE 0, QCA 300): 1.00; log (QA/Qa + QB/Qb) (Saccharomyces cerevsiae; QLAE 0, QCA 300): 0.0000; amount of growth (normalized) to control (Saccharomyces cerevsiae; pH 3.0, Cinnamic Acid 10 ppm): 80%; amount of growth (normalized) to control (Saccharomyces cerevsiae; pH 3.0, Cinnamic Acid 20 ppm): 74%; amount of growth (normalized) to control (Saccharomyces cerevsiae; pH 3.0, Cinnamic Acid 50 ppm): 50%; amount of growth (normalized) to control (Saccharomyces cerevsiae; pH 3.0, Cinnamic Acid 75 ppm): 26%; amount of growth (normalized) to control (Saccharomyces cerevsiae; pH 3.0, Cinnamic Acid 100 ppm): 11%; amount of growth (normalized) to control (Saccharomyces cerevsiae; pH 3.5, Cinnamic Acid 10 ppm): 96%; amount of growth (normalized) to control (Saccharomyces cerevsiae; pH 3.5, Cinnamic Acid 20 ppm): 85%; amount of growth (normalized) to control (Saccharomyces cerevsiae; pH 3.5, Cinnamic Acid 50 ppm): 61%; amount of growth (normalized) to control (Saccharomyces cerevsiae; pH 3.5, Cinnamic Acid 75 ppm): 44%; amount of growth (normalized) to control (Saccharomyces cerevsiae; pH 3.5, Cinnamic Acid 100 ppm): 22%; amount of growth (normalized) to control (Saccharomyces cerevsiae; pH 4.0, Cinnamic Acid 10 ppm): 96%; amount of growth (normalized) to control (Saccharomyces cerevsiae; pH 4.0, Cinnamic Acid 20 ppm): 87%; amount of growth (normalized) to control (Saccharomyces cerevsiae; pH 4.0, Cinnamic Acid 50 ppm): 72%; amount of growth (normalized) to control (Saccharomyces cerevsiae; pH 4.0, Cinnamic Acid 75 ppm): 54%; amount of growth (normalized) to control (Saccharomyces cerevsiae; pH 4.0, Cinnamic Acid 100 ppm): 39%; QCA* (quantity of cinnamic acid alone required for the end point) (Saccharomyces cerevsiae; [2]): QCA* 300; concentration required to inhibit all seven bio-indicator strains [1]: 1.61 mM
